# Test system: CT26 (mouse colon carcinoma)
# Test: Cytotoxicity in the dark, resazurin assay
# Type: cell-based
# Description: The cell lines employed in laser irradiation were the HT-29 (human colon carcinoma), PC-3 (human prostate carcinoma), SW2 (human small cell lung cancer), A-549 (human non-small cell lung cancer). S91/I3 (mouse melanoma) and CT26 (mouse colon carcinoma). They were used both for cytotoxicity and photocytotoxicity experiments. PC-3. SW2 and S91113 cells were cultured in RPMI-1640 medium (Sigma-Aldrich, Steinheim, Germany) and HT-29, A-549 and CT26 cells were cultured in Dulbecco's Modified Eagle Medium (DMEM) (Cambrex Bioscience, Verviers, Belgium). […] For the in vitro studies, cells at 85-90% confluence, were detached with Trypsin-Versene-EDTA solution (Cambrex Bioscience, Verviers, Belgium), counted and seeded in flat-bottom 96-well plates at the desired densities.
# Cell viability assay. In the end of the experiences cell viability was evaluated by the resazurin reduction assay. […] The absorbance values of each well were measured at 540 nm and 630 nm using a microplate reader Multiskan Ex (Thermo-Electron Corporation, Vartaa, Finland).
# Cytotoxicity. […] After the incubation the cell viability was evaluated. […] Cytotoxicity was quantified by expressing cell death relatively to untreated cells (% of control cells). […]
compound,measurement,value
"CCNS(=O)(=O)c1ccc(Cl)c(-c2c3nc(c(-c4c(Cl)ccc(S(=O)(=O)NCC)c4Cl)c4ccc([nH]4)c(-c4c(Cl)ccc(S(=O)(=O)NCC)c4Cl)c4nc(c(-c5c(Cl)ccc(S(=O)(=O)NCC)c5Cl)c5ccc2[nH]5)CC4)CC3)c1Cl [Luzitin-Cl2Et, 5,10,15,20-tetrakis(2,6-dichloro-3-N-ethylsulfamoylphenyl)bacteriochlorin]",highest concentration that causes relatively no effect in viability in the dark,50 µM

# Source: patent US9670217B2, “Process for preparing chlorins and their pharmaceutical uses” (UNIVERSIDADE DE COIMBRA, priority 2008, dated 2017)
